Experimental data from patent EP4810486A1, “CRYSTAL OF HETEROCYCLIC DERIVATIVE” (Nippon Shinyaku Co., Ltd., priority 2023, dated 2025).
One block for each compound: values may come before it.

Experiments:
Type in all cases: physicochemical
[1] = Stability evaluation on exposure to heating, light or humidifying stimulus (HPLC)
Description: The Form-I crystal of the p-TsOH salt of the compound A and the free form crystal of the compound A prepared according to the method described in PATENT DOCUMENT 1 were exposed to heating stimulus (allowed to stand at 60°C for 24 hours), light stimulus (light source: D65 lamp, total intensity: 1.2 million lx·hr), or humidifying stimulus (allowed to stand at 30°C and a relative humidity of 90% for 24 hours), and the stability thereof was evaluated based on the percentage (%) of the area of the peak of the free form of the compound A or the Form-I crystal of the p-TsOH salt of the compound A in the observed peaks in HPLC with and without exposure to the stimuli.

[2] = Stability test of Form-III crystal at 40°C and 75% relative humidity; conditions: relative humidity 75%
Description: About 10 mg of the Form-III crystal of the p-TsOH salt of the compound A obtained in Example 2 was allowed to stand at 40°C and a relative humidity of 75% for 7 days or longer, and as a result, the Form-III crystal of the p-TsOH salt of the compound A was able to exist stably for 7 days or longer.

[3] = Relative stability of Form-I to Form-III crystals: pairs stirred in acetone (X-ray powder diffraction); conditions: pairs at mass ratio 1:1 in acetone, 30°C, 42 hours
Description: The Form-I crystal and the Form-II crystal of the p-TsOH salt of the compound A, the Form-I crystal and the Form-III crystal of the p-TsOH salt of the compound A, or the Form-II crystal and the Form-III crystal of the p-TsOH salt of the compound A were added to acetone at a mass ratio of 1:1, and the mixture was stirred at 30°C for 42 hours. Then, the crystal form of the p-TsOH salt of the compound A in the solution was examined by X-ray powder diffraction, and as a result, under all the three conditions, each of the crystals of the p-TsOH salt of the compound A in the solution transitioned to a Form-I crystal.

[4] = Stability of Form-I crystal in various solvents (X-ray powder diffraction); conditions: pulverized crystal in methanol, ethyl acetate or methyl ethyl ketone, 40°C, 115 hours
Description: In order to facilitate the transition of the crystal form by a solvent, the Form-I crystal of the p-TsOH salt of the compound A was pulverized in a mortar. The obtained pulverized material was added to methanol, ethyl acetate, or methyl ethyl ketone, and the mixture was stirred at 40°C for 115 hours. After stirring, the crystal form of the p-TsOH salt of the compound A in the solution was examined by X-ray powder diffraction, and the results are shown in FIG. 28.

[5] = Relative stability between crystals: six forms stirred together in DMF/toluene (X-ray powder diffraction); conditions: Form-I, III, IV, V, VI, VII, 100 mg each, in DMF/toluene 1:9, stirred at 20°C or 55°C
Description: The crystals of the p-TsOH salt of the compound A prepared in Examples 1 to 3 and Comparative Examples 1 to 3 were each weighed in 100 mg, a total of 600 mg was added to 30 mL of a mixed solvent of DMF and toluene having a volume ratio of 1:9, and the mixture was stirred at 20°C or 55°C. After 3, 4, 7, and 8 days from the start of stirring at 20°C, and after 3 and 4 days from the start of stirring at 55°C, the crystal form of the p-TsOH salt of the compound A in the mixed solution was measured by X-ray powder diffraction.

[6] = Stability test of Form-I crystal when mixed with excipient (40°C, 75% relative humidity, open system; HPLC and visual inspection); conditions: for observation of the color of the crystal: crystal only and all excipient mixtures, visual inspection
Description: The Form-I crystal of the p-TsOH salt of the compound A was mixed with each of various excipients at a mass ratio of 1:1 using a mortar, was allowed to stand in a thermo-hygrostat at a temperature of 40°C and a relative humidity of 75% in an open system for 2 weeks or 1 month, and then evaluated for the presence/absence of decomposition using HPLC and checked for color change by visual inspection. The stability of only the Form-I crystal of the p-TsOH salt of the compound A was also evaluated as a reference. The conditions for HPLC are as follows. • Instrument: SHIMADZU LC-2010 CHT • Column: COSMOSIL 3C18-MSII 4.6×100 mm • Column temperature: 40°C • Mobile phase: Liquid A; MeCN/H2O/MsOH = 600/400/1 Liquid B: MeCN/H2O/MsOH = 900/100/1 • Gradient: 0-8 min; A = 100% • 8-10 min; A to B • 10-20 min; B = 100% • 20-21 min; B to A • Flow rate: 0.5 mL/min • Wavelength: 230 nm
The results of the percentage (%) of the area of the peak of the Form-I crystal of the p-TsOH salt of the compound A in the observed peaks in HPLC and observation of the color of the crystal are shown in Table 3. According to Table 3, no decomposition of the Form-I crystal of the p-TsOH salt of the compound A was observed under the conditions of mixing with any of the excipients, and no color change occurred. […]

[7] = Thermal stability of Form-II crystal (X-ray powder diffraction while heating and cooling); conditions: heated to 30°C, 150°C, 200°C, then cooled to 150°C and 30°C
Description: Therefore, for the Form-II crystal of the p-TsOH salt of the compound A, the crystal form was examined by X-ray powder diffraction while increasing the temperature to 30°C, 150°C, and 200°C, and then the crystal form was further examined by X-ray powder diffraction while cooling to 150°C and 30°C.

[8] = Crystal form transition on heating (relative stability of crystal forms)
Description: The Form-V crystal of the p-TsOH salt of the compound A obtained in Comparative Example 1 was heated at 205°C for 10 minutes, and as a result, a Form-III crystal of the p-TsOH salt of the compound A was obtained.
The Form-VI crystal of the p-TsOH salt of the compound A obtained in Comparative Example 2 was heated at 190°C for 10 minutes, and as a result, a Form-III crystal of the p-TsOH salt of the compound A was obtained.

[9] = Crystal form transition on standing at 40°C and 75% relative humidity (relative stability); conditions: 1/2 acetonitrile solvate crystal at 40°C, relative humidity 75%, 7 days gave Form-IV crystal
Description: About 10 mg of the 1/2 acetonitrile solvate crystal of the p-TsOH salt of the compound A obtained in Example 3 was allowed to stand at 40°C and a relative humidity of 75% for 7 days, and as a result, a Form-IV crystal of the p-TsOH salt of the compound A was obtained.

[10] = Differential thermal analysis and thermogravimetric analysis (TG/DTA); conditions: heating rate 10.0°C/min, nitrogen
Description: TG/DTA in Examples 1 to 11 was measured by TG-8120 (manufactured by Rigaku Corporation) (cell: alumina (open), gas: nitrogen, heating rate: 10.0°C/min, hold temperature: 300°C, hold time: 0 min) unless otherwise specified.
The results of differential scanning calorimetry (DSC) of the Form-I crystal of the p-TsOH salt of the compound A are shown in FIG. 2. The results of thermophysical property measurement by differential thermal analysis (DTA) and thermogravimetric analysis (TGA) of the Form-I crystal of the p-TsOH salt of the compound A are shown in FIG. 3.

[11] = Stability of crystal form on mechanical stimulus and water (X-ray powder diffraction); conditions: pulverized, water-treated, stored at 30°C, relative humidity 90%, tableted (2,000 kgf × 30 min)
Description: X-ray powder diffraction measurement was performed for a crystal (pulverized) obtained by pulverizing the Form-I crystal of the p-TsOH salt of the compound A in a mortar, a crystal (water-treated) obtained by kneading the Form-I crystal of the p-TsOH salt of the compound A after adding water, a sample of the Form-I crystal of the p-TsOH salt of the compound A stored under a humidifying stimulus condition (30°C, relative humidity of 90%), and a sample obtained by tableting the Form-I crystal of the p-TsOH salt of the compound A (2,000 kgf × 30 min). The results are shown in FIG. 24 together with the results of the Form-I crystal of the p-TsOH salt of the compound A not undergoing any treatment (untreated).

[12] = Heating stimulus: 60°C for 24 hours
[13] = Humidifying stimulus: 30°C, relative humidity 90%, 24 hours
[14] = Light stimulus: D65 lamp, total intensity 1.2 million lx·hr

percentage (%) of the area of the peak in the observed peaks in HPLC [1, 12]: 99.76% | percentage (%) of the area of the peak in the observed peaks in HPLC [1, 13]: 99.76% | percentage (%) of the area of the peak in the observed peaks in HPLC [1, 14]: 99.74% | percentage (%) of the area of the peak in the observed peaks in HPLC ([1]; No stimulus): 99.78%
Structure (SMILES): COCc1nc2c(C(=O)Nc3cccc(Cl)c3C)cc(NC(=O)c3ccccc3C(F)(F)F)cc2[nH]1 [Free form of compound A, N-(3-chloro-2-methylphenyl)-2-(methoxymethyl)-6-({[2-(trifluoromethyl)phenyl]carbonyl}amino)-1H-benzimidazole-4-carboxamide]

percentage (%) of the area of the peak in the observed peaks in HPLC [1, 12]: 99.69% | percentage (%) of the area of the peak in the observed peaks in HPLC [1, 13]: 99.68% | percentage (%) of the area of the peak in the observed peaks in HPLC [1, 14]: 99.72% | percentage (%) of the area of the peak in the observed peaks in HPLC ([1]; No stimulus): 99.70% | time for which the crystal was able to exist stably [2]: ≥ 7 days | most stable form among Form-I, Form-II and Form-III crystals [3]: the most stable form | most stable form among the crystals [5]: the most stable form | percentage (%) of the area of the peak of the Form-I crystal of the p-TsOH salt of the compound A in the observed peaks in HPLC ([6]; Crystal only, 1 month at 40°C, relative humidity 75%, open system): 99.68% | percentage (%) of the area of the peak of the Form-I crystal of the p-TsOH salt of the compound A in the observed peaks in HPLC ([6]; Crystal only, 2 weeks at 40°C, relative humidity 75%, open system): 99.70% | percentage (%) of the area of the peak of the Form-I crystal of the p-TsOH salt of the compound A in the observed peaks in HPLC ([6]; Crystal only, immediately after mixing): 99.71% | observation of the color of the crystal ([6]; 1 month at 40°C, relative humidity 75%): No color change under any conditions | observation of the color of the crystal ([6]; 2 weeks at 40°C, relative humidity 75%): No color change under any conditions | percentage (%) of the area of the peak of the Form-I crystal of the p-TsOH salt of the compound A in the observed peaks in HPLC ([6]; mixed 1:1 with Corn starch, 1 month at 40°C, relative humidity 75%): 99.66% | percentage (%) of the area of the peak of the Form-I crystal of the p-TsOH salt of the compound A in the observed peaks in HPLC ([6]; mixed 1:1 with Corn starch, 2 weeks at 40°C, relative humidity 75%): 99.66% | percentage (%) of the area of the peak of the Form-I crystal of the p-TsOH salt of the compound A in the observed peaks in HPLC ([6]; mixed 1:1 with Corn starch, immediately after mixing): 99.71% | percentage (%) of the area of the peak of the Form-I crystal of the p-TsOH salt of the compound A in the observed peaks in HPLC ([6]; mixed 1:1 with Crystalline cellulose, 1 month at 40°C, relative humidity 75%): 99.69% | percentage (%) of the area of the peak of the Form-I crystal of the p-TsOH salt of the compound A in the observed peaks in HPLC ([6]; mixed 1:1 with Crystalline cellulose, 2 weeks at 40°C, relative humidity 75%): 99.65% | percentage (%) of the area of the peak of the Form-I crystal of the p-TsOH salt of the compound A in the observed peaks in HPLC ([6]; mixed 1:1 with Crystalline cellulose, immediately after mixing): 99.73% | percentage (%) of the area of the peak of the Form-I crystal of the p-TsOH salt of the compound A in the observed peaks in HPLC ([6]; mixed 1:1 with D-Mannitol, 1 month at 40°C, relative humidity 75%): 99.71% | percentage (%) of the area of the peak of the Form-I crystal of the p-TsOH salt of the compound A in the observed peaks in HPLC ([6]; mixed 1:1 with D-Mannitol, 2 weeks at 40°C, relative humidity 75%): 99.70% | percentage (%) of the area of the peak of the Form-I crystal of the p-TsOH salt of the compound A in the observed peaks in HPLC ([6]; mixed 1:1 with D-Mannitol, immediately after mixing): 99.63% | percentage (%) of the area of the peak of the Form-I crystal of the p-TsOH salt of the compound A in the observed peaks in HPLC ([6]; mixed 1:1 with Lactose, 1 month at 40°C, relative humidity 75%): 99.58% | percentage (%) of the area of the peak of the Form-I crystal of the p-TsOH salt of the compound A in the observed peaks in HPLC ([6]; mixed 1:1 with Lactose, 2 weeks at 40°C, relative humidity 75%): 99.74% | percentage (%) of the area of the peak of the Form-I crystal of the p-TsOH salt of the compound A in the observed peaks in HPLC ([6]; mixed 1:1 with Lactose, immediately after mixing): 99.64% | stability against heat [7]: rather stable against heat | relative stability of crystal forms ([8]; Form-V crystal heated at 205°C for 10 minutes gave Form-III crystal): higher stability than the Form-V crystal
Structure (SMILES): COCc1nc2c(C(=O)Nc3cccc(Cl)c3C)cc(NC(=O)c3ccccc3C(F)(F)F)cc2[nH]1.Cc1ccc(S(=O)(=O)O)cc1 [N-(3-chloro-2-methylphenyl)-2-(methoxymethyl)-6-({[2-(trifluoromethyl)phenyl]carbonyl}amino)-1H-benzimidazole-4-carboxamide 4-methylbenzenesulfonate]
change in the color of the crystal ([1]; after exposure to heating, light or humidifying stimulus): no change in the color of the crystal was observed | change in crystal form [4]: no change in crystal form was observed under any of the conditions | relative stability of crystal forms ([8]; Form-VI crystal heated at 190°C for 10 minutes gave Form-III crystal): higher stability than the Form-VI crystal | relative stability of crystal forms [9]: higher stability than the 1/2 acetonitrile solvate crystal of the p-TsOH salt of the compound A obtained in Example 3 | thermal stability in DTA/TGA [10]: stable without any weight change or endothermic or exothermic heat until decomposition at 200 °C or higher | change in crystal form [11]: no change in crystal form was observed under any of the conditions
